Laboratory results reported in article PMC7707621, “Oxidized Juncuenin B Analogues with Increased Antiproliferative Activity on Human Adherent Cell Lines: Semisynthesis and Biological Evaluation” (Journal of Natural Products, 2020).
Like-named read-outs stand apart in the source and are kept apart here.

What was measured:
[1] = test system: HeLa cells; settings: cited from earlier work
[2] = test system: A2780 cells; settings: read-out: IC50 value from literature, A2780; cited from earlier work
[3] = test system: NIH/3T3 mouse embryonic fibroblast cells; experiment: MTT assay for tumor selectivity on NIH/3T3; format: cell-based; settings: MTT, 0.1–30 μM, 72 h, mean ± SEM; read-out: calculated IC50 values, NIH/3T3
Experimental: (§1) The antiproliferative assays of the products were carried out by a standard MTT method on human breast (MCF-7, T47D), cervical (HeLa, SiHa, C33A), and ovarian (A2780) cancer cells, and NIH/3T3 mouse embryonic fibroblast cell lines. In the first step, the diastereomeric and racemic mixtures 1–11 and the starting compound, juncuenin B, were tested to obtain information about their antiproliferative activity.
(§2) The antiproliferative activity and tumor selectivity of the compounds were measured by standard MTT assays. Tumor cell lines MCF-7, T47D, HeLa, A2780, and noncancerous NIH/3T3 were provided by European Collection of Authenticated Cell Cultures (ECACC, Salisbury, UK); cell lines SiHa and C33A by LGC Standards GmbH (Wesel, Germany). All chemicals and materials used for the antiproliferative assays were purchased from Sigma Aldrich Ltd. (Budapest, Hungary).
(§3) Growth-inhibition properties of racemates and pure enantiomer compounds were determined by standard MTT assays on six human malignant gynecological cell lines (MCF-7, T47D, HeLa, SiHa, C33A, A2780). To investigate tumor selectivity, the MTT assay was repeated on mouse embryonic fibroblast cells (NIH/3T3) under the same conditions. All cell lines were maintained in minimal essential medium (MEM) supplemented with 10% fetal bovine serum, 1% nonessential amino acids, and 1% penicillin–streptomycin–amphotericin B mixture, and were stored in humidified air containing 5% CO2 at 37 °C. All cell types were seeded into 96–well plates at a density of 5000 with the exception of C33a, which was seeded at a density of 10 000 and treated by increasing concentrations (0.1–30 μM) of the compounds for 72 h under cell culturing conditions. After the incubation, 5 mg/mL MTT [3-(4,5-dimethylthiazol-2-yl)-2,5-diphenyltetrazolium bromide] solution was added to samples for 4 h and precipitated blue formazan crystals were dissolved in DMSO. Absorbance values of the samples were measured at 545 nm using a microplate reader (Stat Fax-2100, Awareness Technologies Inc., Palm City, FL, USA) and untreated cells were used as control. Normalized sigmoidal dose–response curves were fitted to the determined data and the IC50 values were calculated by GraphPad Prism 5.01 (GraphPad Software, San Diego, CA, USA). Cisplatin (Ebewe Pharma GmbH, Unterach, Austria) was used as a reference agent in the same concentration range.

[4] = test system: SiHa cells; experiment: MTT antiproliferative assay on SiHa; format: cell-based, human; settings: for IC50: MTT, 0.1–30 μM, 72 h, mean ± SEM, read-out: calculated IC50 values, SiHa
Experimental: as §1, §2, §3

[5] = test system: T47D cells; settings: read-out: IC50 value from literature, T47D; cited from earlier work
[6] = test system: MCF-7 cells; experiment: MTT antiproliferative assay on MCF-7; format: cell-based, human
Experimental: as §1, §2, §3

[7] = test system: C33A cells; experiment: MTT antiproliferative assay on C33A; format: cell-based, human; settings: for IC50: MTT, 0.1–30 μM, 72 h, mean ± SEM, read-out: calculated IC50 values, C33A
Experimental: as §1, §2, §3

[8] = test system: T47D cells; experiment: MTT antiproliferative assay on T47D; format: cell-based, human; settings: Homo sapiens, T47D, read-out: Growth inhibition (% ± SEM), T47d
Experimental: as §1, §2, §3

[9] = test system: HeLa cells; experiment: MTT antiproliferative assay on HeLa; format: cell-based, human; settings: Homo sapiens, HeLa, read-out: Growth inhibition (% ± SEM), HeLa
Experimental: as §1, §2, §3

[10] = test system: A2780 cells; experiment: MTT antiproliferative assay on A2780; format: cell-based, human; settings: Homo sapiens, read-out: Growth inhibition (% ± SEM), A2780
Experimental: as §1, §2, §3

Q: Which “cytotoxicity on HeLa cells (in words)” value [1] does the source give for `C=Cc1c(C)c(O)cc2c1-c1ccc(O)c(C)c1CC2` [Juncusol] here?
A: cytotoxic

Q: For `N.N.[Cl][Pt][Cl]` [cisplatin, reference compound], which IC50 [2] is on record?
A: 1300 nM

Q: And the IC50 [3]?
A: 2700 nM

Q: What about the IC50 [4] of the same compound?
A: 7.8 µM

Q: What about the IC50 [5] of the same compound?
A: 9.8 µM

Q: And the IC50 ([6]; MTT, 0.1–30 μM, 72 h, mean ± SEM, read-out: calculated IC50 values, MCF-7)?
A: 5.8 µM

Q: What about the IC50 [7] of the same compound?
A: 1.8 µM

Q: For `C=Cc1c(C)c(O)cc2c1CCc1c-2ccc(O)c1C` [juncuenin B, 1,7-dimethyl-8-vinyl-9,10-dihydrophenanthrene-2,6-diol], which inhibition at 10 µM ([8]; 10 μM) is on record?
A: < 10%

Q: And the inhibition at 30 µM ([8]; 30 μM)?
A: 54.2 ± 2.66%

Q: What about the inhibition at 10 µM ([9]; 10 μM) of the same compound?
A: 88.8 ± 1.15%

Q: What about the inhibition at 30 µM ([9]; 30 μM) of the same compound?
A: 93.58 ± 0.41%

Q: And the inhibition at 10 µM ([4]; Homo sapiens, SiHa, 10 μM, read-out: Growth inhibition (% ± SEM), SiHa)?
A: 22.7 ± 2.89%

Q: What about the inhibition at 30 µM ([4]; Homo sapiens, SiHa, 30 μM, read-out: Growth inhibition (% ± SEM), SiHa) of the same compound?
A: 33.1 ± 1.76%

Q: What about the IC50 ([4]; Homo sapiens, SiHa) of the same compound?
A: > 30 µM

Q: What about the inhibition at 10 µM ([10]; A2780, 10 μM) of the same compound?
A: 61.2 ± 1.46%

Q: And the inhibition at 30 µM ([10]; A2780, 30 μM)?
A: 85.91 ± 0.62%

Q: And the IC50 [5]?
A: > 30 µM

Q: What about the inhibition at 10 µM ([6]; Homo sapiens, MCF7, 10 μM, read-out: Growth inhibition (% ± SEM), MCF-7) of the same compound?
A: 22.5 ± 2.02%

Q: And the inhibition at 30 µM ([6]; Homo sapiens, MCF7, 30 μM, read-out: Growth inhibition (% ± SEM), MCF-7)?
A: 64.9 ± 2.1%

Q: And the “fold stronger activity on MCF-7 than on T47D cells” value ([6]; MCF-7 versus T47D)?
A: approximately 2.5 fold

Q: And the inhibition at 10 µM ([7]; Homo sapiens, C-33-A, 10 μM, read-out: Growth inhibition (% ± SEM), C33a)?
A: 27.5 ± 2.45%

Q: And the inhibition at 30 µM ([7]; Homo sapiens, C-33-A, 30 μM, read-out: Growth inhibition (% ± SEM), C33a)?
A: 79.33 ± 0.7%

Q: What about the IC50 ([7]; Homo sapiens, C-33-A) of the same compound?
A: 12.7 ± 1.7 µM
